The values below come from US10064865B2, “Composition comprising phosphodiesterase type 5 inhibitor for inhibiting apoptosis of nerve cells” (ARIBIO INC., priority 2012, dated 2018).

Structures are written as SMILES.

The test system of this assay is neuron apoptosis-operated rats. Briefly: Example 2 water tank task (water maze). It counts as in vivo, Sprague-Dawley (SD) rats. As for the experimental part: Cognitive testing was conducted using the water tank task (J Neurosci Methods. 11:47-60(1984)). On the days 14 and 28 after neuron apoptosis, the rats were given a series of 3 trials, 10 min apart in a large dark-colored tank (150 cm in diameters×50 cm in height) filled with clear water at a temperature of 22.0±1.0° C. A 15×30 cm submerged platform (2 mm below water surface) was placed in the northwest quadrant of the pool. The release point was always the southern end of the pool. The rats were lowered into the pool facing the wall and were released. The swim paths of the rats for each trials were recorded with a computer interfaced camera tracking system (Smart junior, PanLab, Spain), and the distances (m) and times (sec) taken to reach the escape platform were measured.
All data were expressed as mean±standard deviation (S.D.) of ten rats. Multiple comparison tests for different dose groups were conducted. Variance homogeneity was examined using the Levene test (Levene A, Clin Otalary, 1981; 6:145-51). […] Statistical analyses were conducted using SPSS for Windows (Release 14K, SPSS Inc., USA; Ludbrook, Clin Exp Pharmacol Physiol, 1997; 24:294-6). In addition, the percent changes as compared with neuron apoptosis control and mirodenafil treated rats were calculated to help the understanding of the efficacy of test substances as follow Equation 6 and 7. Percentage Changes as Compared with Sham Control (%)=[((Data of neuron apoptosis control−Data of sham control rat)/Data of sham control rats)×100] [EQUATION 6] Percentage Changes as Compared with neuron apoptosis Control (%)=[((Data of test material treated rats−Data of neuron apoptosis control rats)/Data of neuron apoptosis control rats)×100] [EQUATION 7]

[1] abbreviates: 1 mg/kg from 24 hrs after surgery.
Where [2] appears, read: 1 mg/kg from 72 hrs after surgery.
[3] abbreviates: 1 mg/kg from 168 hrs after surgery.

Consider `CCCOc1ccc(S(=O)(=O)N2CCN(CCO)CC2)cc1-c1nc2c(CCC)cn(CC)c2c(=O)[nH]1` [Mirodenafil, mirodenafil], for which the “mean distances to reach the escape platform at 28 days, change as compared with neuron apoptosis control” value under setting [1] was −26.45%; the “mean distances to reach the escape platform at 28 days, change as compared with neuron apoptosis control” value under setting [2] is −16.05%; the “mean distances to reach the escape platform at 28 days, change as compared with neuron apoptosis control” value under setting [3] was −6.42%. Further, the “mean time to reach the escape platform at 28 days, change as compared with neuron apoptosis control” value is, setting by setting: under setting [1], −24.49%; under setting [2], −17.33%; under setting [3], −5.36%.
